Test results reported in patent publication US8618152B2, “Inhibitors of serine proteases, particularly HCV NS3-NS4A proteases” (Vertex Pharmaceuticals Incorporated, priority 2003, dated 2013).
Like-named read-outs stand apart in the source and are kept apart here. *1 amine or outer side, *2 acyl side, *3 side chain or, on linkers, in order; H or OH if unused. Where a SMILES comes first, the peptide text is derived from it. [ ]: non-standard residue; d: D form. The star is where a group is joined. Pro(3S-Et) = CC[C@H]1CCN[C@@H]1C(=O)O; Pyrazinecarbonyl = O=C(c1cnccn1)*; X1 = CCCC(N[*:1])C(=O)C(=O)[*:2]; Chg = N[C@H](C(=O)O)C1CCCCC1; Tle = CC(C)(C)[C@H](N)C(=O)O

Tests used:
[1] = target: HCV NS3-NS4A protease (tNS3 with KK4A) (Hepatitis C virus genotype 1a, UniProt P27958); experiment: HCV Ki assay (HPLC microbore separation of 5AB substrate and products); assay type: biochemical
Protocol: HPLC Microbore Method for Separation of 5AB Substrate and Products
Substrate: NH2-Glu-Asp-Val-Val-(alpha)Abu-Cys-Ser-Met-Ser-Tyr-COOH
A stock solution of 20 mM 5AB (or concentration of your choice) was made in DMSO w/0.2M DTT. This was stored in aliquots at −20 C.
Buffer: 50 mM HEPES, pH 7.8; 20% glycerol; 100 mM NaCl
Total assay volume was 100 μL
The buffer, KK4A, DTT, and tNS3 were combined; distributed 78 μL each into wells of 96 well plate. This was incubated at 30 C for ˜5-10 min.
2.5 μL of appropriate concentration of test compound was dissolved in DMSO (DMSO only for control) and added to each well. This was incubated at room temperature for 15 min.
Initiated reaction by addition of 20 μL of 250 μM 5AB substrate (25 μM concentration is equivalent or slightly lower than the Km for 5AB).
Incubated for 20 min at 30 C.
Terminated reaction by addition of 25 μL of 10% TFA
Transferred 120 μL aliquots to HPLC vials
Separated SMSY product from substrate and KK4A by the following method:
Microbore Separation Method:
Instrumentation: Agilent 1100
Column thermostated chamber G1316A
Diode array detector G1315A
Solvent A=HPLC grade water+0.1% TFA
Solvent B=HPLC grade acetonitrile+0.1% TFA
Stop time: 17 min Post-run time: 10 min.

[2] = test system: Cells containing hepatitis C virus (HCV) replicon; experiment: HCV replicon cell assay; assay type: cell-based
Protocol: HCV Replicon Cell Assay Protocol
Cells containing hepatitis C virus (HCV) replicon were maintained in DMEM containing 10% fetal bovine serum (FBS), 0.25 mg per ml of G418, with appropriate supplements (media A).
On day 1, replicon cell monolayer was treated with a trypsin:EDTA mixture, removed, and then media A was diluted into a final concentration of 100,000 cells per ml with. 10,000 cells in 100 ul were plated into each well of a 96-well tissue culture plate, and cultured overnight in a tissue culture incubator at 37° C.
On day 2, compounds (in 100% DMSO) were serially diluted into DMEM containing 2% FBS, 0.5% DMSO, with appropriate supplements (media B). The final concentration of DMSO was maintained at 0.5% throughout the dilution series.
Media on the replicon cell monolayer was removed, and then media B containing various concentrations of compounds was added. Media B without any compound was added to other wells as no compound controls.
Cells were incubated with compound or 0.5% DMSO in media B for 48 hours in a tissue culture incubator at 37° C. At the end of the 48-hour incubation, the media was removed, and the replicon cell monolayer was washed once with PBS and stored at −80° C. prior to RNA extraction.
Culture plates with treated replicon cell monolayers were thawed, and a fixed amount of another RNA virus, such as Bovine Viral Diarrhea Virus (BVDV) was added to cells in each well. RNA extraction reagents (such as reagents from RNeasy kits) were added to the cells immediately to avoid degradation of RNA. Total RNA was extracted according the instruction of manufacturer with modification to improve extraction efficiency and consistency. Finally, total cellular RNA, including HCV replicon RNA, was eluted and stored at −80° C. until further processing.
A Taqman real-time RT-PCR quantification assay was set up with two sets of specific primers and probe. One was for HCV and the other was for BVDV. Total RNA extractants from treated HCV replicon cells was added to the PCR reactions for quantification of both HCV and BVDV RNA in the same PCR well. Experimental failure was flagged and rejected based on the level of BVDV RNA in each well. The level of HCV RNA in each well was calculated according to a standard curve run in the same PCR plate. The percentage of inhibition or decrease of HCV RNA level due to compound treatment was calculated using the DMSO or no compound control as 0% of inhibition. The IC50 (concentration at which 50% inhibition of HCV RNA level is observed) was calculated from the titration curve of any given compound.

[3] = 25 nM tNS3, 25 μM KK4A, 25 μM 5AB substrate, 20 min at 30 C, read-out: Ki
[4] = 50% inhibition of HCV RNA level, 48-hour incubation, Taqman real-time RT-PCR, read-out: IC50

Chain of HCV NS3-NS4A protease (tNS3 with KK4A) (P27958 1027-1208): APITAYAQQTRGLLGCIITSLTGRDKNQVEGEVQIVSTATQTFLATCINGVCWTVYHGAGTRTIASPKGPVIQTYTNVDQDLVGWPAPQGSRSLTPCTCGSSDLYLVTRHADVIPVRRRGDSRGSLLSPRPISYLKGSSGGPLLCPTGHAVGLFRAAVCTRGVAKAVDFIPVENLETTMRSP

`CCC[C@H](NC(=O)[C@@H]1[C@@H](C(CC)CC)CCN1C(=O)[C@@H](NC(=O)[C@@H](NC(=O)c1cnccn1)C1CCCCC1)C(C)(C)C)C(=O)C(=O)NC1CC1` [Compound 74] was tested, and the Ki [1, 3] was 0.1 to 0.5 µM and the IC50 [2, 4] was > 1 µM.
In the case of `CCCC(NC(=O)[C@@H]1[C@@H](C2CCCCC2)CCN1C(=O)[C@@H](NC(=O)[C@@H](NC(=O)c1cnccn1)C1CCCCC1)C(C)C)C(=O)C(=O)NC1CC1` (stereo partly shown) [Compound 54], the Ki [1, 3] is reported as 0.1 to 0.5 µM and the IC50 ([2]; 48 h) is reported as > 1 µM.
For `CCCC(NC(=O)[C@@H]1[C@@H](C2CCCCC2)CCN1C(=O)[C@@H](NC(=O)[C@@H](NC(=O)c1cnccn1)C1CCCCC1)C(C)(C)C)C(=O)C(=O)NC1CC1` (stereo partly shown) [Compound 55], the Ki [1, 3] was < 0.1 µM and the IC50 [2, 4] was 0.5 to 1 µM.
With `CCC[C@H](NC(=O)[C@@H]1[C@@H](C2CCCCC2)CCN1C(=O)[C@@H](NC(=O)[C@@H](NC(=O)c1ccc[nH]1)C1CCCCC1)C(C)(C)C)C(=O)C(=O)NC1CC1` [Compound 72] the Ki [1, 3] was < 0.1 µM and the IC50 [2, 4] was 0.5 to 1 µM.
For `CCC[C@H](NC(=O)[C@@H]1[C@@H](C(C)(C)C)CCN1C(=O)[C@@H](NC(=O)[C@@H](NC(=O)c1cnccn1)C1CCCCC1)C(C)(C)C)C(=O)C(=O)NC1CC1` [Compound 73], the Ki [1, 3] was 0.1 to 0.5 µM and the IC50 [2, 4] was > 1 µM.
For `CCCC(NC(=O)[C@@H]1[C@@H](C2CCCCC2)CCN1C(=O)[C@@H](NC(=O)[C@@H](NC(=O)c1cnccn1)C1CCCCC1)C(C)(C)C)C(=O)C(=O)N[C@@H](C)c1ccccc1` (stereo partly shown) [Compound 62], the Ki [1, 3] was < 0.1 µM and the IC50 [2, 4] was 0.5 to 1 µM.
`CCC[C@H](NC(=O)[C@@H]1[C@@H](C(C)C)CCN1C(=O)[C@@H](NC(=O)[C@@H](NC(=O)c1ncc[nH]1)C1CCCCC1)C(C)(C)C)C(=O)C(=O)NC1CC1` [Compound 69] was tested, and the Ki [1, 3] was < 0.1 µM and the IC50 [2, 4] was < 0.5 µM.
For `CCC[C@H](NC(=O)[C@@H]1[C@@H](C2CCCC2)CCN1C(=O)[C@@H](NC(=O)[C@@H](NC(=O)c1cnccn1)C1CCCCC1)C(C)(C)C)C(=O)C(=O)NC1CC1` [Compound 75], the Ki [1, 3] was 0.1 to 0.5 µM and the IC50 [2, 4] was > 1 µM.
For `CCC[C@H](NC(=O)[C@@H]1[C@@H](Cc2ccccc2)CCN1C(=O)[C@@H](NC(=O)[C@@H](NC(=O)c1cnccn1)C1CCCCC1)C(C)(C)C)C(=O)C(=O)NC1CC1` [Compound 77], the Ki [1, 3] was 0.1 to 0.5 µM and the IC50 [2, 4] was > 1 µM.
Compound `CCC[C@H](NC(=O)[C@@H]1[C@@H](C2CCCCC2)CCN1C(=O)[C@@H](NC(=O)[C@@H](NC(=O)c1cnccn1)C1CCCCC1)C(C)(C)C)C(=O)C(=O)NC1CC1` [Compound 66] has a Ki [1, 3] of 0.1 to 0.5 µM and an IC50 [2, 4] of 0.5 to 1 µM.
In the case of `CC[C@H]1CCN(C(=O)[C@@H](NC(=O)[C@@H](NC(=O)c2cnccn2)C2CCCCC2)C(C)(C)C)[C@@H]1C(=O)NC(CC(F)F)C(=O)C(=O)NC1CC1` (stereo partly shown) [Compound 52], the Ki [1, 3] is reported as < 0.1 µM and the IC50 [2, 4] is reported as < 0.5 µM.
`CCC[C@H](NC(=O)[C@@H]1[C@@H](CC)[C@@H](C)CN1C(=O)[C@@H](NC(=O)[C@@H](NC(=O)c1cnccn1)C1CCCCC1)C(C)(C)C)C(=O)C(=O)NC1CC1` [Compound 76] was tested, and the Ki [1, 3] was 0.1 to 0.5 µM and the IC50 [2, 4] was > 1 µM.
With `CCCC(NC(=O)[C@@H]1[C@@H](C2CCCCC2)CCN1C(=O)[C@@H](NC(=O)[C@@H](NC(=O)C1CSC(=O)N1)C1CCCCC1)C(C)(C)C)C(=O)C(=O)N[C@@H](C)c1ccccc1` (stereo partly shown) [Compound 63] the Ki [1] was < 0.1 µM and the IC50 [2, 4] was 0.5 to 1 µM.
For `CCC[C@H](NC(=O)[C@@H]1[C@@H](C2CCCCC2)CCN1C(=O)[C@@H](NC(=O)[C@@H](NC(=O)c1cc([N+](=O)[O-])c[nH]1)C1CCCCC1)C(C)(C)C)C(=O)C(=O)NC1CC1` [Compound 71], the Ki [1, 3] was < 0.1 µM and the IC50 [2, 4] was > 1 µM.
For `CCCC(NC(=O)[C@@H]1[C@@H](CC)CCN1C(=O)[C@@H](NC(=O)[C@@H](NC(=O)c1cnccn1)C1CCCCC1)C(C)(C)C)C(=O)C(=O)N[C@@H](Cc1ccccc1)C(=O)O` (stereo partly drawn) [Compound 41] (Pyrazinecarbonyl-[Chg][Tle][Pro(3S-Et)][X1]F-OH), the Ki [1, 3] was > 0.5 µM and the IC50 ([2]; 48 h) was < 0.5 µM.
For `CCC[C@H](NC(=O)[C@@H]1[C@@H](C2CCCCC2)CCN1C(=O)[C@@H](NC(=O)[C@@H](NC(=O)c1ncc[nH]1)C1CCCCC1)C(C)(C)C)C(=O)C(=O)NC1CC1` [Compound 68], the Ki [1, 3] was < 0.1 µM and the IC50 [2, 4] was < 0.5 µM.
`CCCC(NC(=O)[C@@H]1[C@@H](CC)CCN1C(=O)[C@@H](NC(=O)[C@@H](NC(=O)c1cnccn1)C1CCCCC1)C(C)(C)C)C(=O)C(=O)N[C@@H](C)c1ccccc1` (stereo partly shown) [Compound 44] was tested, and the Ki [1, 3] was 0.1 to 0.5 µM and the IC50 [2, 4] was 0.5 to 1 µM.
